In patent US20230089867A1, “CYCLIC PENTAMER COMPOUNDS AS PROPROTEIN CONVERTASE SUBTILISIN/KEXIN TYPE 9 (PCSK9) INHIBITORS FOR THE TREATMENT OF METABOLIC DISORDER” (Novartis AG, priority 2018, published 2023):
Where two headings read alike, the source gives them in different places.

Columns and labels:
[1] = amide bond, 18-membered ring, HATU/HOAt/2,6-lutidine, DCM, 45.0 °C
human PCSK9 = human PCSK9 (Homo sapiens, UniProt Q8NBP7); assay: PCSK9 ligand binding TR-FRET assay (interference with binding of human PCSK9 to human LDLR); conditions: for Max % inhibition: PCSK9 FRET assay, efficacy (Amax), 100% = 1 uM unlabeled human PCSK9, 0% = DMSO
Summary of the method: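 Threefold compound dilutions were pre-incubated 30 min with PCSK9, after which 4 nM Europium Kryptate-tagged human LDLR ectodomain was added for a further 2 h.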

[2] = TR-FRET, human PCSK9 Alexa Fluor 647 / human LDLR extracellular domain-Europium Kryptate, read-out: PCSK9 FRET Assay IC50

Structure (SMILES)	Max % inhibition (human PCSK9)	IC50 (human PCSK9; [2])	further results
COC[C@@H]1NC(=O)[C@H](CCNC(=O)OC(C)(C)C)N(Cc2ccc(Cl)cc2Oc2ccc(-c3cnc(CN(C)C)n3C)cc2)C(=O)C[C@@H](Cc2ccccc2)C(=O)N(C)[C@H]2CCCC[C@@H]2NC(=O)C[C@H](Cc2ccc(Cl)cc2)N(C)C1=O	–	–	ring closure, isolated yield ([1]; from (R)-3-Benzyl-4-(((1S,2S)-2-((8S,11S,14S)-8-((4-chloro-2-(4-(2-((dimethylamino)methyl)-1-methyl-1H-imidazol-5-yl)phenoxy)benzyl)amino)-14-(4-chlorobenzyl)-11-(methoxymethyl)-2,2,13-trimethyl-4,9,12-trioxo-3-oxa-5,10,13-triazahexadecan-16-amido)cyclohexyl)(methyl)amino)-4-oxobutanoic acid, 0.845 mM): 59.6%
COC[C@@H]1NC(=O)[C@H](C)N(Cc2ccc(Cl)cc2Oc2ccc(-c3cnc(CN(C)C)n3C)cc2)C(=O)C[C@@H](Cc2ccccc2)C(=O)N(C)C2CC2NC(=O)C[C@H](Cc2ccc(Cl)cc2)N(C)C1=O.O=C(O)C(F)(F)F (mixture of isomers) [Compound 147, (5S,8S,11S,15R)-15-benzyl-12-(4-chloro-2-(4-(2-((dimethylamino)methyl)-1-methyl-1H-imidazol-5-yl)phenoxy)benzyl)-5-(4-chlorobenzyl)-8-(methoxymethyl)-6,11,17-trimethyl-2,6,9,12,17-pentaazabicyclo[16.1.0]nonadecane-3,7,10,13,16-pentaone trifluoroacetate]	104.16%	3.7 nM	ring closure, isolated yield ([1]; from (3R)-3-benzyl-4-((2-((S)-3-((S)-2-((S)-2-((4-chloro-2-(4-(2-((dimethylamino)methyl)-1-methyl-1H-imidazol-5-yl)phenoxy)benzyl)amino)propanamido)-3-methoxy-N-methylpropanamido)-4-(4-chlorophenyl)butanamido)cyclopropyl)(methyl)amino)-4-oxobutanoic acid?): 19%
COC[C@@H]1NC(=O)[C@H](C)N(Cc2ccc(Cl)cc2Oc2ccc(-c3cnc(CN(C)C)n3C)cc2)C(=O)C[C@@H](Cc2ccccc2)C(=O)N(C)C2CCOCC2NC(=O)C[C@H](Cc2ccc(Cl)cc2)N(C)C1=O (stereo partly shown)	–	–	ring closure, isolated yield ([1]; from (3R)-3-benzyl-4-((3-((S)-3-((S)-2-((S)-2-((4-chloro-2-(4-(2-((dimethylamino)methyl)-1-methyl-1H-imidazol-5-yl)phenoxy)benzyl)amino)propanamido)-3-methoxy-N-methylpropanamido)-4-(4-chloro phenyl)butanamido)tetrahydro-2H-pyran-4-yl)(methyl)amino)-4-oxobutanoic acid): 17%
COC[C@@H]1NC(=O)[C@H](C)N(Cc2ccc(Cl)cc2Oc2ccc(-c3cnc(CN(C)C)n3C)cc2)C(=O)C[C@@H](Cc2cccc(C)n2)C(=O)N(C)[C@H]2CCCC[C@@H]2NC(=O)C[C@H](Cc2ccc(Cl)cc2)N(C)C1=O [Compound 265, (4S,7S,10S,14R,16aS,20aS)-11-(4-chloro-2-(4-(2-((dimethylamino)methyl)-1-methyl-1H-imidazol-5-yl)phenoxy)benzyl)-4-(4-chlorobenzyl)-7-(methoxymethyl)-5,10,16-trimethyl-14-((6-methylpyridin-2-yl)methyl)hexadecahydrobenzo-[l][1,4,7,11,14]pentaazacyclooctadecine-2,6,9,12,15(3H)-pentaone]	104.88%	312 nM	ring closure, isolated yield ([1]; from (R)-4-(((1S,2S)-2-((S)-3-((S)-2-((S)-2-((4-chloro-2-(4-(2-((dimethylamino)methyl)-1-methyl-1H-imidazol-5-yl)phenoxy)benzyl)amino)propanamido)-3-methoxy-N-methylpropanamido)-4-(4-chlorophenyl)butanamido)cyclohexyl)(methyl)amino)-3-((6-methylpyridin-2-yl)methyl)-4-oxobutanoic acid): 31.1%
COC[C@@H]1NC(=O)[C@H](CCCN2CCCC2=O)N(Cc2ccc(Cl)cc2Oc2ccc(-c3cnc(CN(C)C)n3C)cc2)C(=O)C[C@@H](Cc2ccccc2)C(=O)N(C)[C@H]2CCCC[C@@H]2NC(=O)C[C@H](Cc2ccc(Cl)cc2)N(C)C1=O [Compound 296, (4S,7S,10S,14R,16aS,20aS)-14-benzyl-11-(4-chloro-2-(4-(2-((dimethylamino)-methyl)-1-methyl-1H-imidazol-5-yl)phenoxy)benzyl)-4-(4-chlorobenzyl)-7-(methoxymethyl)-5,16-dimethyl-10-(3-(2-oxopyrrolidin-1-yl)propyl)hexadecahydrobenzo[l][1,4,7,11,14]penta-azacyclooctadecine-2,6,9,12,15(3H)-pentaone]	98.03%	1.2 nM	–
COC[C@@H]1NC(=O)[C@H](CC(F)(F)F)N(Cc2ccc(Cl)cc2Oc2ccc(-c3cnc(CN(C)C)n3C)cc2)C(=O)C[C@@H](Cc2ccccc2)C(=O)N(C)[C@@H](C)CNC(=O)C[C@H](Cc2ccc(Cl)cc2)N(C)C1=O [Compound 37, (2S,5S,8S,13S,16R)-16-benzyl-1-(4-chloro-2-(4-(2-((dimethylamino)methyl)-1-methyl-1H-imidazol-5-yl)phenoxy)benzyl)-8-(4-chlorobenzyl)-5-(methoxymethyl)-7,13,14-trimethyl-2-(2,2,2-trifluoroethyl)-1,4,7,11,14-pentaazacyclooctadecane-3,6,10,15,18-pentaone]	100.65%	2.3 nM	–
COC[C@@H]1NC(=O)[C@H](C)N(Cc2ccc(Cl)cc2Oc2ccc(-n3nnc(CN(C)C)c3C)cc2)C(=O)C[C@@H](Cc2ccccc2)C(=O)N(C)[C@@H](C)CNC(=O)C[C@H](Cc2ccc(Cl)cc2)N(C)C1=O.O=CO [Compound 134, (2S,5S,8S,13S,16R)-16-benzyl-1-(4-chloro-2-(4-(4-((dimethylamino)methyl)-5-methyl-1H-1,2,3-triazol-1-yl)phenoxy)benzyl)-8-(4-chlorobenzyl)-5-(methoxymethyl)-2,7,13,14-tetramethyl-1,4,7,11,14-pentaazacyclooctadecane-3,6,10,15,18-pentaone formate]	98.77%	39.5 nM	–
COC[C@@H]1NC(=O)[C@H](C)N(Cc2ccc(Cl)cc2Oc2ccc(-c3cncc(C4CCN(CCF)CC4)c3)cc2)C(=O)C[C@@H](Cc2ccccc2)C(=O)N(C)[C@@H](C)CNC(=O)C[C@H](Cc2ccc(Cl)cc2)N(C)C1=O	–	–	IC50 (human PCSK9): 3.2 nM

Second part, led by results:

Max % inhibition (human PCSK9)	IC50 (human PCSK9; [2])	Structure (SMILES)	further results
92.32%	21.1 nM	CCOC[C@@H]1NC(=O)[C@H](C)N(Cc2ccc(Cl)cc2Oc2ccc(-c3cnc(CN(C)C)n3C)cc2)C(=O)C[C@@H](C)C(=O)N(C)[C@@H](C)CNC(=O)C[C@H](Cc2ccc(Cl)cc2)N(C)C1=O.O=CO [Compound 53, (2S,5S,8S,13S,16R)-1-(4-chloro-2-(4-(2-((dimethylamino)methyl)-1-methyl-1H-imidazol-5-yl)phenoxy)benzyl)-8-(4-chlorobenzyl)-5-(ethoxymethyl)-2,7,13,14,16-pentamethyl-1,4,7,11,14-pentaaza cyclooctadecane-3,6,10,15,18-pentaone formate]	ring closure, isolated yield ([1]; from (3S,6S,9S,14S,17R)-1-(4-chloro-2-(4-(2-((dimethylamino)methyl)-1-methyl-1H-imidazol-5-yl)phenoxy)phenyl)-9-(4-chlorobenzyl)-6-(ethoxymethyl)-3,8,14,15,17-pentamethyl-4,7,11,16-tetraoxo-2,5,8,12,15-pentaazanonadecan-19-oic acid hydrochloride, 1.27 mM): 9%
96.86%	11.5 nM	C[C@H]1CNC(=O)C[C@H](Cc2ccc(Cl)cc2)N(C)C(=O)[C@H](CC(=O)OC(C)(C)C)NC(=O)[C@H](C)N(Cc2ccc(Cl)cc2Oc2ccc(-c3cnc(CN(C)C)n3C)cc2)C(=O)C[C@@H](Cc2ccccc2)C(=O)N1C [Compound 185, tert-butyl 2-((2S,5S,8S,13S,16R)-16-benzyl-1-(4-chloro-2-(4-(2-((dimethylamino)methyl)-1-methyl-1H-imidazol-5-yl)phenoxy)benzyl)-8-(4-chlorobenzyl)-2,7,13,14-tetramethyl-3,6,10,15,18-pentaoxo-1,4,7,11,14-pentaazacyclooctadecan-5-yl)acetate]	ring closure, isolated yield ([1]; from (3S,6S,9S,14S,17R)-17-benzyl-6-(2-(tert-butoxy)-2-oxoethyl)-1-(4-chloro-2-(4-(2-((dimethyl amino)methyl)-1-methyl-1H-imidazol-5-yl)phenoxy)phenyl)-9-(4-chlorobenzyl)-3,8,14,15-tetramethyl-4,7,11,16-tetraoxo-2,5,8,12,15-pentaazanonadecan-19-oic acid, 1.85 mM): 46%
102.15%	2.6 nM	C=CC[C@@H]1CC(=O)N(Cc2ccc(Cl)cc2Oc2ccc(-c3cnc(CN(C)C)n3C)cc2)[C@@H](C)C(=O)N[C@@H](COC)C(=O)N(C)[C@@H](Cc2ccc(Cl)cc2)CC(=O)NC[C@H](C)N(C)C1=O [Compound 44, (2S,5S,8S,13S,16R)-16-allyl-1-(4-chloro-2-(4-(2-((dimethylamino)methyl)-1-methyl-1H-imidazol-5-yl)phenoxy)benzyl)-8-(4-chlorobenzyl)-5-(methoxymethyl)-2,7,13,14-tetramethyl-1,4,7,11,14-pentaaza cyclooctadecane-3,6,10,15,18-pentaone]	ring closure, isolated yield ([1]; from (3S,6S,9S,14S,17R)-17-allyl-1-(4-chloro-2-(4-(2-((dimethylamino)methyl)-1-methyl-1H-imidazol-5-yl)phenoxy)phenyl)-9-(4-chlorobenzyl)-6-(methoxymethyl)-3,8,14,15-tetramethyl-4,7,11,16-tetraoxo-2,5,8,12,15-pentaazanonadecan-19-oic acid): 26%
108.38%	3.7 nM	COCC[C@H]1C(=O)N[C@@H](COC)C(=O)N(C)[C@@H](Cc2ccc(Cl)cc2)CC(=O)NC[C@H](C)N(C)C(=O)[C@H](Cc2ccccc2)CC(=O)N1Cc1ccc(Cl)cc1Oc1ccc(-c2cnc(CN(C)C)n2C)cc1 [Compound 156, (2S,5S,8S,13S,16R)-16-benzyl-1-(4-chloro-2-(4-(2-((dimethylamino)methyl)-1-methyl-1H-imidazol-5-yl)phenoxy)benzyl)-8-(4-chlorobenzyl)-2-(2-methoxyethyl)-5-(methoxymethyl)-7,13,14-trimethyl-1,4,7,11,14-pentaazacyclooctadecane-3,6,10,15,18-pentaone]	–
85.89%	1.6 nM	COC[C@@H]1NC(=O)[C@H](C)N(Cc2ccc(Cl)cc2Oc2ccc(-c3cnc(CN(C)C)n3C)cc2)C(=O)C[C@@H](CC#N)C(=O)N(C)[C@H]2CCCC[C@@H]2NC(=O)C[C@H](Cc2ccc(Cl)cc2)N(C)C1=O [Compound 89, 2-((4S,7S,10S,14R,16aS,20aS)-11-(4-chloro-2-(4-(2-((dimethylamino)methyl)-1-methyl-1H-imidazol-5-yl)phenoxy)benzyl)-4-(4-chlorobenzyl)-7-(methoxymethyl)-5,10,16-trimethyl-2,6,9,12,15-pentaoxodocosahydrobenzo[l][1,4,7,11,14]pentaazacyclooctadecin-14-yl)acetonitrile]	–
